Where two headings read alike, the source gives them in different places.
Columns and labels:
[1] = test system: MLK2; assay: KINOMEscan; type: binding; settings: 1000 nM
[2] = test system: AKT2; assay: KINOMEscan; type: binding; settings: 1000 nM
[3] = test system: IRAK3; assay: KINOMEscan; type: binding; settings: 1000 nM
[4] = test system: p38-gamma; assay: KINOMEscan; type: binding; settings: 1000 nM
[5] = test system: S6K1; assay: KINOMEscan; type: binding; settings: 1000 nM
[6] = test system: MAP4K5; assay: KINOMEscan; type: binding; settings: 1000 nM
[7] = test system: RIPK1; assay: KINOMEscan; type: binding; settings: 1000 nM
[8] = test system: EPHB6; assay: KINOMEscan; type: binding; settings: 1000 nM
[9] = test system: ACVR1; assay: KINOMEscan; type: binding; settings: 1000 nM
[10] = test system: ABL1(T315I)-phosphorylated; assay: KINOMEscan; type: binding; settings: 1000 nM
[11] = test system: SRMS; assay: KINOMEscan; type: binding; settings: 1000 nM
[12] = test system: EGFR(L747-T751del,Sins); assay: KINOMEscan; type: binding; settings: 1000 nM
[13] = test system: ABL1-nonphosphorylated; assay: KINOMEscan; type: binding; settings: 1000 nM
[14] = test system: TYK2(JH1domain-catalytic); assay: KINOMEscan; type: binding; settings: 1000 nM
[15] = test system: MARK2; assay: KINOMEscan; type: binding; settings: 1000 nM
[16] = in vivo pharmacokinetic study; set-up: species or system rats; settings: male, Sprague-Dawley, rat, plasma; for MRT inf: read-out: MRT (0- ∞)
[17] = test system: MAP3K2; assay: KINOMEscan; type: binding; settings: 1000 nM
[18] = test system: ACVR1B; assay: KINOMEscan; type: binding; settings: 1000 nM
[19] = test system: INSRR; assay: KINOMEscan; type: binding; settings: 1000 nM
[20] = test system: ABL1(M351T)-phosphorylated; assay: KINOMEscan; type: binding; settings: 1000 nM
[21] = test system: TESK1; assay: KINOMEscan; type: binding; settings: 1000 nM
[22] = test system: RIPK2; assay: KINOMEscan; type: binding; settings: 1000 nM
[23] = test system: PIK3CB; assay: KINOMEscan; type: binding; settings: 1000 nM
[24] = test system: FGFR3; assay: KINOMEscan; type: binding; settings: 1000 nM
[25] = test system: EIF2AK1; assay: KINOMEscan; type: binding; settings: 1000 nM
[26] = test system: PFPK5(P.falciparum); assay: KINOMEscan; type: binding; settings: 1000 nM
[27] = test system: FGFR4; assay: KINOMEscan; type: binding; settings: 1000 nM
[28] = test system: ALK(C1156Y); assay: KINOMEscan; type: binding; settings: 1000 nM
[29] = test system: p38-beta; assay: KINOMEscan; type: binding; settings: 1000 nM
[30] = test system: JAK1(JH2domain-pseudokinase); assay: KINOMEscan; type: binding; settings: 1000 nM
[31] = test system: PIK3CA(M1043I); assay: KINOMEscan; type: binding; settings: 1000 nM
[32] = test system: MAP4K2; assay: KINOMEscan; type: binding; settings: 1000 nM
[33] = test system: TRPM6; assay: KINOMEscan; type: binding; settings: 1000 nM
[34] = test system: SNRK; assay: KINOMEscan; type: binding; settings: 1000 nM
[35] = test system: YSK4; assay: KINOMEscan; type: binding; settings: 1000 nM
[36] = test system: MAPKAPK2; assay: KINOMEscan; type: binding; settings: 1000 nM
[37] = test system: PIK3CA(I800L); assay: KINOMEscan; type: binding; settings: 1000 nM
[38] = test system: WNK2; assay: KINOMEscan; type: binding; settings: 1000 nM
[39] = test system: MYLK2; assay: KINOMEscan; type: binding; settings: 1000 nM
[40] = test system: BRAF(V600E); assay: KINOMEscan; type: binding; settings: 1000 nM
[41] = test system: PRKG1; assay: KINOMEscan; type: binding; settings: 1000 nM
[42] = test system: EPHA3; assay: KINOMEscan; type: binding; settings: 1000 nM
[43] = test system: SIK; assay: KINOMEscan; type: binding; settings: 1000 nM
[44] = test system: LATS1; assay: KINOMEscan; type: binding; settings: 1000 nM
[45] = test system: JAK1(JH1domain-catalytic); assay: KINOMEscan; type: binding; settings: 1000 nM
[46] = test system: SGK; assay: KINOMEscan; type: binding; settings: 1000 nM
[47] = test system: KIT-autoinhibited; assay: KINOMEscan; type: binding; settings: 1000 nM
[48] = test system: PLK1; assay: KINOMEscan; type: binding; settings: 1000 nM
[49] = test system: CSNK2A2; assay: KINOMEscan; type: binding; settings: 1000 nM
[50] = test system: SYK; assay: KINOMEscan; type: binding; settings: 1000 nM
[51] = test system: PIK3CA; assay: KINOMEscan; type: binding; settings: 1000 nM
[52] = test system: MYO3B; assay: KINOMEscan; type: binding; settings: 1000 nM
[53] = test system: PLK4; assay: KINOMEscan; type: binding; settings: 1000 nM
[54] = test system: PIK3CA(E545A); assay: KINOMEscan; type: binding; settings: 1000 nM
[55] = test system: PIK3CA(H1047Y); assay: KINOMEscan; type: binding; settings: 1000 nM

Structure (SMILES): C=CC(=O)Nc1cc(Nc2cc(-c3cccc(NC(=O)c4cc5c(s4)CCCC5)c3C)cn(C)c2=O)ccc1N1CCN(CC)CC1 [CHMFL-BTK-85]
- Percent Control [1]: 90%
- Percent Control [2]: 88%
- Percent Control [3]: 100%
- Percent Control [4]: 62%
- Percent Control [5]: 100%
- Percent Control [6]: 100%
- Percent Control [7]: 97%
- Percent Control [8]: 69%
- Percent Control [9]: 99%
- Percent Control [10]: 100%
- Percent Control [11]: 85%
- Percent Control [12]: 93%
- Percent Control [13]: 76%
- Percent Control [14]: 100%
- Percent Control [15]: 91%
- AUC(0-inf) ([16]; iv, Rats, I.V. 1mg/kg): 766 ± 261 ng·h/mL
- AUC(0-t) ([16]; iv, Rats, I.V. 1mg/kg): 747 ± 263 ng·h/mL
- Cmax ([16]; iv, Rats, I.V. 1mg/kg): 1080 ± 390 ng/mL
- Tmax ([16]; iv, Rats, I.V. 1mg/kg): 0.02 h
- half-life ([16]; iv, Rats, I.V. 1mg/kg): 1.6 ± 0.3 h
- MRT inf ([16]; iv, Rats, I.V. 1mg/kg): 1.6 ± 0.2 h
- AUC(0-inf) ([16]; po, Rats, P.O. 10mg/kg): 2160 ± 474 ng·h/mL
- Cmax ([16]; po, Rats, P.O. 10mg/kg): 296 ± 67 ng/mL
- Tmax ([16]; po, Rats, P.O. 10mg/kg): 6 h
- bioavailability ([16]; po, Rats, P.O. 10mg/kg): 29%
- half-life ([16]; po, Rats, P.O. 10mg/kg): 2.9 h
- MRT inf ([16]; po, Rats, P.O. 10mg/kg): 6.5 ± 0.1 h
- AUC(0-t) ([16]; rats, oral administration at 10 mg/kg): 2140 ng·h/mL
- Percent Control [17]: 100%
- Percent Control [18]: 95%
- Percent Control [19]: 90%
- Percent Control [20]: 100%
- Percent Control [21]: 96%
- Percent Control [22]: 94%
- Percent Control [23]: 94%
- Percent Control [24]: 82%
- Percent Control [25]: 100%
- Percent Control [26]: 100%
- Percent Control [27]: 92%
- Percent Control [28]: 100%
- Percent Control [29]: 89%
- Percent Control [30]: 96%
- Percent Control [31]: 71%
- Percent Control [32]: 100%
- Percent Control [33]: 100%
- Percent Control [34]: 86%
- Percent Control [35]: 100%
- Percent Control [36]: 86%
- Percent Control [37]: 100%
- Percent Control [38]: 87%
- Percent Control [39]: 91%
- Percent Control [40]: 100%
- Percent Control [41]: 93%
- Percent Control [42]: 98%
- Percent Control [43]: 99%
- Percent Control [44]: 100%
- Percent Control [45]: 96%
- Percent Control [46]: 100%
- Percent Control [47]: 100%
- Percent Control [48]: 100%
- Percent Control [49]: 98%
- Percent Control [50]: 100%
- Percent Control [51]: 82%
- Percent Control [52]: 92%
- Percent Control [53]: 97%
- Percent Control [54]: 65%
- Percent Control [55]: 83%

Reference: PMC7490411 (Signal Transduction and Targeted Therapy, 2020)
